US20240270762A1, “PENICILLIN-BINDING PROTEIN INHIBITORS” (priority 2021, published 2024)
Values after ≈ are worked out from the molar mass of the structure shown.

Assays:
[1] = test system: P. aeruginosa ATCC 35151; assay: microbe, parasite or virus in culture; format: cell-based; conditions: Pseudomonas aeruginosa, ATCC35151, read-out: MIC P. aeruginosa ATCC 35151
[2] = test system: P. aeruginosa ATCC 27853; assay: microbe, parasite or virus in culture; format: cell-based; conditions: Pseudomonas aeruginosa, ATCC27853, read-out: MIC P. aeruginosa ATCC 27853
[3] = test system: E. coli AG100; assay: microbe, parasite or virus in culture; format: cell-based; conditions: Escherichia coli, AG100, read-out: MIC E. coli AG100
[4] = test system: E. coli D22; assay: microbe, parasite or virus in culture; format: cell-based; conditions: Escherichia coli, D22, read-out: MIC E. coli D22
[5] = test system: N. gonorrhoeae MS11; assay: Liquid broth MIC in Fastidious broth; conditions: Neisseria gonorrhoeae, MS11, read-out: Minimum Inhibitory Concentration (MIC), N. gonorrhoeae MS11
[6] = test system: N. gonorrhoeae WHO M; assay: Liquid broth MIC in Fastidious broth; conditions: Neisseria gonorrhoeae, read-out: Minimum Inhibitory Concentration (MIC), N. gonorrhoeae WHO M
[7] = test system: N. gonorrhoeae WHO Z; assay: Liquid broth MIC in Fastidious broth; conditions: Neisseria gonorrhoeae, read-out: Minimum Inhibitory Concentration (MIC), N. gonorrhoeae WHO Z
[8] = test system: K. pneumoniae UMM; assay: microbe, parasite or virus in culture; format: cell-based; conditions: Klebsiella pneumoniae, read-out: MIC K. pneumoniae UMM
[9] = test system: N. gonorrhoeae FA1090; assay: Liquid broth MIC in Fastidious broth; conditions: Neisseria gonorrhoeae, FA1090, read-out: Minimum Inhibitory Concentration (MIC), N. gonorrhoeae FA 1090
[10] = test system: N. gonorrhoeae WHO X; assay: Liquid broth MIC in Fastidious broth; conditions: Neisseria gonorrhoeae, read-out: Minimum Inhibitory Concentration (MIC), N. gonorrhoeae WHO X
[11] = test system: P. aeruginosa (ΔmexAB-oprM); assay: Broth microdilution MIC in CAMHB; format: cell-based; conditions: Pseudomonas aeruginosa; read-out: MIC P. aeruginosa ΔmexAB-oprM
[12] = test system: A. baumannii ATCC 19606; assay: microbe, parasite or virus in culture; format: cell-based; conditions: Acinetobacter baumannii, ATCC19606, read-out: MIC, A. baumannii ATCC 19606
[13] = test system: K. pneumoniae SI-117; assay: microbe, parasite or virus in culture; format: cell-based; conditions: Klebsiella pneumoniae, SI117, read-out: MIC K. pneumoniae SI-117
[14] = test system: E. coli ATCC 25922; assay: microbe, parasite or virus in culture; format: cell-based; conditions: Escherichia coli, ATCC25922, read-out: MIC E. coli 25922
[15] = test system: K. pneumoniae 848844; assay: microbe, parasite or virus in culture; format: cell-based; conditions: Klebsiella pneumoniae, 848844, read-out: MIC K. pneumoniae 848844
[16] = test system: N. gonorrhoeae WHO K; assay: Liquid broth MIC in Fastidious broth; conditions: Neisseria gonorrhoeae, read-out: Minimum Inhibitory Concentration (MIC), N. gonorrhoeae WHO K
[17] = test system: E. coli 901C; assay: microbe, parasite or virus in culture; format: cell-based; conditions: Escherichia coli, read-out: MIC E. coli 901C

| SMILES | MIC [1] | MIC [2] | MIC [3] | MIC [4] | MIC [5] | MIC [6] | MIC [7] | MIC [8] | MIC [9] | MIC [10] | MIC [11] | MIC [12] | MIC [13] | MIC [14] | MIC [15] | MIC [16] | MIC [17] |
| --- | --- | --- | --- | --- | --- | --- | --- | --- | --- | --- | --- | --- | --- | --- | --- | --- | --- |
| CN1CCC[C@H]1C(=O)NC(C(=O)N[C@H]1Cc2cccc(C(=O)O)c2OB1O)c1ccc(P(=O)(O)O)cc1 (stereo partly drawn) [Example 66] | 8 to 16 µg/mL (≈ 15.1 to 30.1 µM) | > 128 µg/mL | > 128 µg/mL | 32 to 64 µg/mL (≈ 60.2 to 120 µM) | 16 to 32 µg/mL (≈ 30.1 to 60.2 µM) | 4 to 8 µg/mL (≈ 7.53 to 15.1 µM) | 16 to 32 µg/mL (≈ 30.1 to 60.2 µM) | > 128 µg/mL | 4 to 8 µg/mL (≈ 7.53 to 15.1 µM) | 16 to 32 µg/mL (≈ 30.1 to 60.2 µM) | 32 to 64 µg/mL (≈ 60.2 to 120 µM) | > 128 µg/mL | > 128 µg/mL | > 128 µg/mL | > 128 µg/mL | 16 to 32 µg/mL (≈ 30.1 to 60.2 µM) | 32 to 64 µg/mL (≈ 60.2 to 120 µM) |
| O=C(O)c1cccc2c1OB(O)[C@@H](NC(=O)[C@H](NC(=O)c1c[nH]ccc1=O)c1ccc(P(=O)(O)O)cc1)C2 [Example 175, (R)-2-hydroxy-3-((R)-2-(4-oxo-1,4-dihydropyridine-3-carboxamido)-2-(4-phosphonophenyl)acetamido)-3,4-dihydro-2H-benzo[e][1,2]oxaborinine-8-carboxylic acid] | < 1 µg/mL | 32 to 64 µg/mL (≈ 59.1 to 118 µM) | 32 to 64 µg/mL (≈ 59.1 to 118 µM) | 8 to 16 µg/mL (≈ 14.8 to 29.6 µM) | 1 to 2 µg/mL (≈ 1.85 to 3.7 µM) | < 1 µg/mL | 4 to 8 µg/mL (≈ 7.39 to 14.8 µM) | 32 to 64 µg/mL (≈ 59.1 to 118 µM) | < 1 µg/mL | 16 to 32 µg/mL (≈ 29.6 to 59.1 µM) | 8 to 16 µg/mL (≈ 14.8 to 29.6 µM) | > 128 µg/mL | 32 to 64 µg/mL (≈ 59.1 to 118 µM) | 32 to 64 µg/mL (≈ 59.1 to 118 µM) | 32 to 64 µg/mL (≈ 59.1 to 118 µM) | 16 to 32 µg/mL (≈ 29.6 to 59.1 µM) | 2 to 4 µg/mL (≈ 3.7 to 7.39 µM) |
| O=C(O)c1cccc2c1OB(O)[C@@H](NC(=O)C(NC(=O)c1ccc[nH]c1=O)c1ccc(P(=O)(O)O)cc1)C2 (stereo partly drawn) [Example 174, (3R)-2-hydroxy-3-(2-(2-oxo-1,2-dihydropyridine-3-carboxamido)-2-(4-phosphonophenyl)acetamido)-3,4-dihydro-2H-benzo[e][1,2]oxaborinine-8-carboxylic acid] | 2 to 4 µg/mL (≈ 3.7 to 7.39 µM) | > 128 µg/mL | > 128 µg/mL | 32 to 64 µg/mL (≈ 59.1 to 118 µM) | 4 to 8 µg/mL (≈ 7.39 to 14.8 µM) | 1 to 2 µg/mL (≈ 1.85 to 3.7 µM) | 16 to 32 µg/mL (≈ 29.6 to 59.1 µM) | > 128 µg/mL | 1 to 2 µg/mL (≈ 1.85 to 3.7 µM) | 16 to 32 µg/mL (≈ 29.6 to 59.1 µM) | 32 to 64 µg/mL (≈ 59.1 to 118 µM) | > 128 µg/mL | > 128 µg/mL | > 128 µg/mL | > 128 µg/mL | 16 to 32 µg/mL (≈ 29.6 to 59.1 µM) | 8 to 16 µg/mL (≈ 14.8 to 29.6 µM) |
| O=C(O)c1cccc2c1OB(O)[C@@H](NC(=O)[C@@H](NC(=O)c1cnc3sccn3c1=O)c1ccc(P(=O)(O)O)cc1)C2 (single isomer, unassigned) [Example 194] | 2 to 4 µg/mL (≈ 3.34 to 6.69 µM) | > 128 µg/mL | > 128 µg/mL | 32 to 64 µg/mL (≈ 53.5 to 107 µM) | 4 to 8 µg/mL (≈ 6.69 to 13.4 µM) | 4 to 8 µg/mL (≈ 6.69 to 13.4 µM) | 16 to 32 µg/mL (≈ 26.7 to 53.5 µM) | > 128 µg/mL | 1 to 2 µg/mL (≈ 1.67 to 3.34 µM) | 16 to 32 µg/mL (≈ 26.7 to 53.5 µM) | 32 to 64 µg/mL (≈ 53.5 to 107 µM) | > 128 µg/mL | > 128 µg/mL | > 128 µg/mL | > 128 µg/mL | 16 to 32 µg/mL (≈ 26.7 to 53.5 µM) | 2 to 4 µg/mL (≈ 3.34 to 6.69 µM) |
| NS(=O)(=O)NC(C(=O)N[C@H]1Cc2cccc(C(=O)O)c2OB1O)c1ccc(P(=O)(O)O)cc1 (stereo partly drawn) [Example 58, (3R)-2-hydroxy-3-(2-(4-phosphonophenyl)-2-(sulfamoylamino)acetamido)-3,4-dihydro-2H-benzo[e][1,2]oxaborinine-8-carboxylic acid] | > 128 µg/mL | > 128 µg/mL | > 128 µg/mL | > 128 µg/mL | 16 to 32 µg/mL (≈ 32.1 to 64.1 µM) | 16 to 32 µg/mL (≈ 32.1 to 64.1 µM) | 16 to 32 µg/mL (≈ 32.1 to 64.1 µM) | > 128 µg/mL | 16 to 32 µg/mL (≈ 32.1 to 64.1 µM) | 16 to 32 µg/mL (≈ 32.1 to 64.1 µM) | > 128 µg/mL | > 128 µg/mL | > 128 µg/mL | > 128 µg/mL | > 128 µg/mL | 16 to 32 µg/mL (≈ 32.1 to 64.1 µM) | > 128 µg/mL |
| O=C(O)c1cccc2c1OB(O)[C@@H](NC(=O)[C@H](NC(=O)c1cccn(C(F)F)c1=O)c1ccc(P(=O)(O)O)cc1)C2 (single isomer, unassigned) [Example 191] | < 1 µg/mL | > 128 µg/mL | > 128 µg/mL | 8 to 16 µg/mL (≈ 13.5 to 27.1 µM) | 1 to 2 µg/mL (≈ 1.69 to 3.38 µM) | < 1 µg/mL | 1 to 2 µg/mL (≈ 1.69 to 3.38 µM) | > 128 µg/mL | < 1 µg/mL | 16 to 32 µg/mL (≈ 27.1 to 54.1 µM) | 8 to 16 µg/mL (≈ 13.5 to 27.1 µM) | > 128 µg/mL | > 128 µg/mL | > 128 µg/mL | > 128 µg/mL | 4 to 8 µg/mL (≈ 6.77 to 13.5 µM) | < 1 µg/mL |
